According to patent USRE47302E1 (ONYX THERAPEUTICS INC., priority 2013, dated 2019):
In brackets after ≈: the same amount, converted by molar mass.

Assay: Solubility pH 7
Conditions: pH 7, aqueous buffer

SMILES | solubility [µg/mL]
COc1ccc(C[C@H](NC(=O)[C@H](C)NC(=O)CN2CCOCC2)C(=O)N[C@@H](CC2CC(F)(F)C2)C(=O)[C@@]2(C)CO2)cc1 [Compound C-1093, (S)-N-((S)-3-(3,3-difluorocyclobutyl)-1-((R)-2-methyloxiran-2-yl)-1-oxopropan-2-yl)-3-(4-methoxyphenyl)-2-((S)-2-(2-morpholinoacetamido)propanamido)propanamide] | 6110 (≈ 10.3 mM)
COc1ccc(C[C@H](NC(=O)[C@@H](C)NC(=O)[C@@H]2CCCN(C)C2)C(=O)N[C@@H](CC2=CCCC2)C(=O)[C@@]2(C)CO2)cc1 [Compound C-1099, (R)-N-((R)-1-(((S)-1-(((S)-3-(cyclopent-1-en-1-yl)-1-((R)-2-methyloxiran-2-yl)-1-oxopropan-2-yl)amino)-3-(4-methoxyphenyl)-1-oxopropan-2-yl)amino)-1-oxopropan-2-yl)-1-methylpiperidine-3-carboxamide] | 7310 (≈ 12.9 mM)
C[C@H](NC(=O)CN1CCOCC1)C(=O)N[C@@H](Cc1ccc2c(c1)CNC(=O)O2)C(=O)N[C@@H](CC1CCCC1)C(=O)[C@@]1(C)CO1 [Compound C-1108, (S)-N-((S)-3-cyclopentyl-1-((R)-2-methyloxiran-2-yl)-1-oxopropan-2-yl)-2-((S)-2-(2-morpholinoacetamido)propanamido)-3-(2-oxo-3,4-dihydro-2H-benzo[e][1,3]oxazin-6-yl)propanamide] | 4730 (≈ 7.71 mM)
COc1ccc(C[C@H](NC(=O)[C@@H](C)NC(=O)[C@]2(C)CC[C@@H](O)CC2)C(=O)N[C@@H](CC2=CCCC2)C(=O)[C@@]2(C)CO2)cc1 [Compound C-1111, (1r,4R)-N-((R)-1-(((S)-1-(((S)-3-(Cyclopent-1-en-1-yl)-1-((R)-2-methyloxiran-2-yl)-1-oxopropan-2-yl)amino)-3-(4-methoxyphenyl)-1-oxopropan-2-yl)amino)-1-oxopropan-2-yl)-4-hydroxy-1-methylcyclohexanecarboxamide] | 1070 (≈ 1.84 mM)
COc1ccc(C[C@H](NC(=O)[C@@H](C)NC(=O)[C@]2(C)CC[C@H](O)CC2)C(=O)N[C@@H](CC2=CCCC2)C(=O)[C@@]2(C)CO2)cc1 [Compound C-1112, (1s,4S)-N-((R)-1-(((S)-1-(((S)-3-(cyclopent-1-en-1-yl)-1-((R)-2-methyloxiran-2-yl)-1-oxopropan-2-yl)amino)-3-(4-methoxyphenyl)-1-oxopropan-2-yl)amino)-1-oxopropan-2-yl)-4-hydroxy-1-methylcyclohexanecarboxamide] | 1110 (≈ 1.91 mM)
C[C@H](NC(=O)CN1CCOCC1)C(=O)N[C@@H](Cc1ccc(O)cc1)C(=O)N[C@@H](CC1CCCC1)C(=O)[C@@]1(C)CO1 [Compound C-1113, (S)-N-((S)-3-cyclopentyl-1-((R)-2-methyloxiran-2-yl)-1-oxopropan-2-yl)-3-(4-hydroxyphenyl)-2-((S)-2-(2-morpholinoacetamido)propanamido)propanamide] | 3790 (≈ 6.78 mM)
C[C@H](NC(=O)CN1CCOCC1)C(=O)N[C@@H](Cc1cccc(O)c1)C(=O)N[C@@H](CC1CCCC1)C(=O)[C@@]1(C)CO1 [Compound C-1114, (S)-N-((S)-3-cyclopentyl-1-((R)-2-methyloxiran-2-yl)-1-oxopropan-2-yl)-3-(3-hydroxyphenyl)-2-((S)-2-(2-morpholinoacetamido)propanamido)propanamide] | 793 (≈ 1.42 mM)
COc1ccc(C[C@H](NC(=O)[C@H](C)NC(=O)CN2CCS(=O)(=O)CC2)C(=O)N[C@@H](CC2=CCCC2)C(=O)[C@@]2(C)CO2)cc1 [Compound C-1115, (S)-N-((S)-3-(cyclopent-1-en-1-yl)-1-((R)-2-methyloxiran-2-yl)-1-oxopropan-2-yl)-2-((S)-2-(2-(1,1-dioxidothiomorpholino)acetamido)propanamido)-3-(4-methoxyphenyl)propanamide] | 496 (≈ 0.801 mM)
COc1ccc(C[C@H](NC(=O)[C@H](C)NC(=O)CN2CCNC(=O)C2)C(=O)N[C@@H](CC2=CCCC2)C(=O)[C@@]2(C)CO2)cc1 [Compound C-1120, (S)-N-((S)-3-(cyclopent-1-en-1-yl)-1-((R)-2-methyloxiran-2-yl)-1-oxopropan-2-yl)-3-(4-methoxyphenyl)-2-((S)-2-(2-(3-oxopiperazin-1-yl)acetamido)propanamido)propanamide] | 8000 (≈ 13.7 mM)

Further lines, results first:

solubility [µg/mL] | SMILES
1670 (≈ 2.86 mM) | COc1ccc(C[C@H](NC(=O)[C@H](C)NC(=O)CN2CCOCC2)C(=O)N[C@@H](C[C@H]2C[C@@H]3C[C@@H]3C2)C(=O)[C@@]2(C)CO2)cc1 [Compound C-1094, (S)-N-((S)-3-((1R,3s,5S)-bicyclo[3.1.0]hexan-3-yl)-1-((R)-2-methyloxiran-2-yl)-1-oxopropan-2-yl)-3-(4-methoxyphenyl)-2-((S)-2-(2-morholinoacetamido)propanamido)propanamide]
7830 (≈ 13.8 mM) | COc1ccc(C[C@H](NC(=O)[C@@H](C)NC(=O)C2CCN(C)CC2)C(=O)N[C@@H](CC2=CCCC2)C(=O)[C@@]2(C)CO2)cc1 [Compound C-1098, N-((R)-1-(((S)-1-(((S)-3-(cyclopent-1-en-1-yl)-1-((R)-2-methyloxiran-2-yl)-1-oxopropan-2-yl)amino)-3-(4-methoxyphenyl)-1-oxopropan-2-yl)amino)-1-oxopropan-2-yl)-1-methylpiperidine-4-carboxamide]
4570 (≈ 7.61 mM) | COc1ccc(C[C@H](NC(=O)[C@H](C)NC(=O)CN2CCOCC2)C(=O)N[C@@H](CC2=CCCCC2)C(=O)[C@@]2(C)CO2)cc1O [Compound C-1100]
4090 (≈ 6.67 mM) | C[C@H](NC(=O)CN1CCOCC1)C(=O)NC(Cc1ccc2c(c1)COC(=O)N2)C(=O)N[C@@H](CC1CCCC1)C(=O)[C@@]1(C)CO1 (stereo partly drawn) [Compound C-1101, N-((S)-3-cyclopentyl-1-((R)-2-methyloxiran-2-yl)-1-oxopropan-2-yl)-2-((S)-2-(2-morpholinoacetamido)propanamido)-3-(2-oxo-2,4-dihydro-1H-benzo[d][1,3]oxazin-6-yl)propanamide]
3410 (≈ 5.26 mM) | C[C@H](NC(=O)CN1CCOCC1)C(=O)N[C@@H](Cc1ccc2c(c1)CCS(=O)(=O)N2)C(=O)N[C@@H](CC1CCCC1)C(=O)[C@@]1(C)CO1 [Compound C-1102, (S)-N-((S)-3-cyclopentyl-1-((R)-2-methyloxiran-2-yl)-1-oxopropan-2-yl)-3-(2,2-dioxido-3,4-dihydro-1H-benzo[c][1,2]thiazin-6-yl)-2-((S)-2-(2-morpholinoacetamido)propanamido)propanamide]
200 (≈ 0.334 mM) | COc1ccc(C[C@H](NC(=O)[C@@H](NC(=O)CN2CCOCC2)C2CC2)C(=O)N[C@@H](CC2CCCC2)C(=O)[C@@]2(C)CO2)cc1 [Compound C-1107, (S)-N-((S)-3-cyclopentyl-1-((R)-2-methyloxiran-2-yl)-1-oxopropan-2-yl)-2-((S)-2-cyclopropyl-2-(2-morpholinoacetamido)acetamido)-3-(4-methoxyphenyl)propanamide]
287 (≈ 0.479 mM) | COc1ccc(C[C@H](NC(=O)[C@H](C)NC(=O)CN2CCC(C)(O)CC2)C(=O)N[C@@H](CC2=CCCC2)C(=O)[C@@]2(C)CO2)cc1 [Compound C-1121, (S)-N-((S)-3-(cyclopent-1-en-1-yl)-1-((R)-2-methyloxiran-2-yl)-1-oxopropan-2-yl)-2-((S)-2-(2-(4-hydroxy-4-methylpiperidin-1-yl)acetamido)propanamido)-3-(4-methoxyphenyl)propanamide]
